Source: patent US10759740B2, “Antibacterial agents” (Rutgers, The State University of New Jersey, priority 2016, dated 2020)

How the values were obtained:
Assay in all cases: MIC broth microdilution (Example 3)
G. vaginalis ATCC 14019 = assay type: cell-based, Gardnerella vaginalis; settings: planktonic, sBHI, anaerobic
Protocol: (§1) G. vaginalis ATCC 14019 strain was grown overnight in Brain Heart Infusion broth (Difco, Sparks, Md.) supplemented with 3% horse serum (sBHI) (JRH Biosciences, KS), while BHI supplemented with 1% glucose (BHIG) was used for biofilm formation assays. Each experiment using G. vaginalis was performed anaerobically (10% hydrogen, 5% carbon dioxide, and 85% nitrogen) within anaerobic glove boxes (Coy Laboratory Products, Inc., Grass Lake, Mich., USA). Three species of vaginal Lactobacillus were used in this study to evaluate the possible harmful effects of CAms on beneficial bacteria: Lactobacillus plantarum ATCC 39268, Lactobacillus rhamnosus 160 (provided by Dr. Aroutcheva, Rush University Medical Center) and Lactobacillus gasseri ATCC 33323; all were grown for 18-24 h in DeMan, Rogosa and Sharpe broth (MRS Difco B D, Franklin Lakes, N.J., USA) under aerobic conditions at 37° C. For lactobacilli biofilm formation, MRS broth supplemented with 1% glucose and 2% sucrose (Fisher Scientific, Waltham, Mass., USA) was utilized.
(§2) To prepare a stock solution, the CAm compounds were dissolved in ddH2O and incubated at 37° C. with shaking at 250 rpm for 10 min. Then, the solution was serially diluted twofold with sBHI broth to determine the MIC and with BHIG broth to identify the MIC-B/MBC-B against planktonic and biofilm cells, respectively.
According to Clinical and Laboratory Standards Institute (CLSI 2010), the MIC is defined as the lowest concentration of antimicrobial compound producing no visible growth or complete inhibition of bacterial growth during 24 h. To determine MIC values, the broth microdilution assay was performed according to Algburi et al. (Algburi et al., 2015. Path Dis 73(5)) with minor modifications. Briefly, the overnight-grown cells were diluted with their suitable culture medium to approach ˜10^6 CFU/ml. The number of bacterial cells was identified using spot plate method (Turovskiy et al., 2012. Infect Dis Obstet Gynecol 2012:284762). […]

[1] = test system: Lactobacillus gasseri ATCC 33323; assay type: cell-based; settings: planktonic
Protocol: as §1, §2
(§3) According to Clinical and Laboratory Standards Institute (CLSI 2010), the MIC is defined as the lowest concentration of antimicrobial compound producing no visible growth or complete inhibition of bacterial growth during 24 h. To determine MIC values, the broth microdilution assay was performed according to Algburi et al. (Algburi et al., 2015. Path Dis 73(5)) with minor modifications. Briefly, the overnight-grown cells were diluted with their suitable culture medium to approach ˜10^6 CFU/ml. The number of bacterial cells was identified using spot plate method (Turovskiy et al., 2012. Infect Dis Obstet Gynecol 2012:284762). The CAms were serially diluted twofold with sBHI into a non-tissue culture 96-well microplate plate (Falcon, Corning Incorporated, Corning, N.Y., USA) resulting in a final volume of 100 μl for each well. Aliquots of 100 μl of the diluted cell suspension (˜10^6 CFU/ml) were added to each well of a microplate that was treated with different concentrations of CAms. To avoid culture medium evaporation, 75 μl of mineral oil (Sigma-Aldrich, St. Louis, Mo.) was added to each treated well. The microplate was then transferred to the plate reader (Model 550, Bio-Rad Laboratories, Hercules, Calif., USA) and incubated at 37° C. for 24-36 h. The kinetic reading was statistically analyzed, and the MIC and sub-MIC of each CAm compound were determined.

[2] = test system: Lactobacillus plantarum ATCC 39268; assay type: cell-based; settings: planktonic
Protocol: as §1, §2, §3

[3] = test system: Lactobacillus rhamnosus 160; assay type: cell-based; settings: planktonic
Protocol: as §1, §2, §3

[4] = test system: Mobiluncus curtisii ATCC 35241; assay type: cell-based; settings: planktonic, anaerobic
Protocol: as §3, with “The antimicrobial activity of CAms was also tested against Peptostreptococcus anaerobius ATCC 27337, Mobiluncus curtisii ATCC 35241 and Prevotella bivia ATCC 29303, all of which, in addition to G. vaginalis, are the most commonly isolated anaerobes from BV-infected women. These anaerobes were maintained within the anaerobic chamber and transferred daily into fresh sBHI. To prepare a stock solution, the CAm compounds were dissolved in ddH2O and incubated at 37° C. with shaking at 250 rpm for 10 min. Then, the solution was serially diluted twofold with sBHI broth to determine the MIC and with BHIG broth to identify the MIC-B/MBC-B against planktonic and biofilm cells, respectively. According” for “According”

[5] = test system: Peptostreptococcus anaerobius ATCC 27337; assay type: cell-based; settings: planktonic, anaerobic
Protocol: as §3, with “The antimicrobial activity of CAms was also tested against Peptostreptococcus anaerobius ATCC 27337, Mobiluncus curtisii ATCC 35241 and Prevotella bivia ATCC 29303, all of which, in addition to G. vaginalis, are the most commonly isolated anaerobes from BV-infected women. These anaerobes were maintained within the anaerobic chamber and transferred daily into fresh sBHI. To prepare a stock solution, the CAm compounds were dissolved in ddH2O and incubated at 37° C. with shaking at 250 rpm for 10 min. Then, the solution was serially diluted twofold with sBHI broth to determine the MIC and with BHIG broth to identify the MIC-B/MBC-B against planktonic and biofilm cells, respectively. According” for “According”

[6] = test system: Prevotella bivia ATCC 29303; assay type: cell-based; settings: planktonic, anaerobic
Protocol: as §3, with “The antimicrobial activity of CAms was also tested against Peptostreptococcus anaerobius ATCC 27337, Mobiluncus curtisii ATCC 35241 and Prevotella bivia ATCC 29303, all of which, in addition to G. vaginalis, are the most commonly isolated anaerobes from BV-infected women. These anaerobes were maintained within the anaerobic chamber and transferred daily into fresh sBHI. To prepare a stock solution, the CAm compounds were dissolved in ddH2O and incubated at 37° C. with shaking at 250 rpm for 10 min. Then, the solution was serially diluted twofold with sBHI broth to determine the MIC and with BHIG broth to identify the MIC-B/MBC-B against planktonic and biofilm cells, respectively. According” for “According”

## CCCCCCCCCCOC(C(=O)NCCN)C(OCCCCCCCCCC)C(=O)NCCN.Cl.Cl (stereo not drawn) [5b]
G. vaginalis ATCC 14019
  MIC G. vaginalis: 1.1 µM
[1]
  MIC L. gasseri: 4.4 µM
[2]
  MIC L. plantarum: 25.7 µM
[3]
  MIC L. rhamnosus: 13.3 µM
[4]
  MIC M. curtisii: 5.4 µM
[5]
  MIC Pep. anaerobius: 1.6 µM
[6]
  MIC P. bivia: 6.6 µM

## CCCCCCCC(=O)OC(C(=O)NCCN)C(OC(=O)CCCCCCC)C(=O)NCCN.Cl.Cl (stereo not drawn) [8a]
G. vaginalis ATCC 14019
  MIC G. vaginalis: 24.4 µM
[1]
  MIC L. gasseri: 55.9 µM
[2]
  MIC L. plantarum: 223 µM
[3]
  MIC L. rhamnosus: 111.6 µM
[4]
  MIC M. curtisii: 93.1 µM
[5]
  MIC Pep. anaerobius: 13.9 µM
[6]
  MIC P. bivia: 111.6 µM

## CCCCCCCCCC(=O)OC(C(=O)NCCN)C(OC(=O)CCCCCCCCC)C(=O)NCCN.Cl.Cl (stereo not drawn) [8b]
G. vaginalis ATCC 14019
  MIC G. vaginalis: 2.3 µM
[1]
  MIC L. gasseri: 12.7 µM
[2]
  MIC L. plantarum: 33.3 µM
[3]
  MIC L. rhamnosus: 12.7 µM
[4]
  MIC M. curtisii: 6.3 µM
[5]
  MIC Pep. anaerobius: 3.1 µM
[6]
  MIC P. bivia: 6.3 µM
